# System: réflexe polysynaptique
# Assay: Inhibition of the polysynaptic reflex in the normal rat (RPRN), EMG of biceps femoris
# Format: in vivo
# Settings: 10 mg/kg, voie i.p
# Description: L'activité décontraccurante du composé de l'invention a été déterminée par l'inhibition du réflexe polysynaptique chez le rat normal (RPRN). L'animal est placé en contention en décubitus ventral. Les membres postérieurs sont immobilisés. Les réflexes polysynaptiques sont évoqués dans le muscle Biceps fémoral (fléchisseur de la cuisse) par stimulation électrique de la voûte plantaire (territoire cutané du nerf sural). L'EMG (Electro-Myo-Graphie) est recueilli par deux électrodes en acier inoxydable insérées dans le muscle parallélement aux fibres.
# Les électrodes de stimulation en acier inoxydable sont insérées en position sous-cutanée. La stimulation consiste en un choc électrique carré de 0.2-0.4 ms de durée et de 0.2 Hz de fréquence. L'intensité de la stimulation est réglée pour obtenir des réflexes bien constitués et de surface stable (8-12 mA).
# L'EMG est amplifié. La surface de chaque réflexe est mesurée.
# Des séries de 20 réflexes sont enregistrées toutes les 15 minutes. La surface des 20 réflexes de chaque série est moyennée.
# Après plusieurs séries contrôles, le produit à étudier est administré. La moyenne des 20 premières réponses contrôles est prise pour 100 %. L'évolution des réponses EMG est suivie alors pendant 2 ou 3 heures.
compound,measurement,value
COc1c(OC2OC(C(=O)O)C(O)C(O)C2O)cc2c(c1OC)-c1ccc(SC)c(=O)cc1C(NC(C)=O)CC2 (stereo not shown) [composé de l'invention],inhibe le réflexe polysynaptique,78%
